{"source": "patent US20250213561A1", "about": "“SELECTIVE HYPOTHALAMUS PERMEABLE HDAC6 INHIBITORS FOR TREATMENT OF LEPTIN-RESISTANT OBESITY” (The Children’s Medical Center Corporation, priority 2022, published 2025)", "key": {"DIO mice [1]": {"test_system": "DIO mice", "test": "Chronic treatment of DIO mice (body weight, food intake, DEXA, glucose homeostasis)", "assay_type": "in vivo", "conditions": "high fat diet induced mice", "description": "DIO mice were treated with ACY775 (10 mg/kg/day, i.p.) for 3 weeks. Daily body weight (g) of DIO mice treated with vehicle (n=17) or ACY775 (n=17) during 3 weeks of treatment was determined. Daily food intake (g) during 3 weeks of vehicle or ACY775 treatment was assessed. 24 hours' food intake per mouse during the first week of vehicle or ACY775 treatment was determined. Serum leptin (ng/ml) levels after 3 weeks of vehicle (n=24) or ACY775 (n=24) treatment was assessed. Lean mass (g), fat mass (g) and fat percentage (%) after 3 weeks of vehicle (n=17) or ACY775 (n=17) treatment measured by Dual-energy X-ray absorptiometry (DEXA) scan. DEXA scans were performed in two different cohorts. Glucose tolerance test (GTT) after 1 week of vehicle (n=33) or ACY775 (n=26) treated DIO mice was assessed. Area of curve (AOC) analysis for GTT was performed. Blood glucose (mg/dl) levels after 1 week of vehicle (n=17) or ACY775 (n=16) were assessed in treated DIO mice. Insulin tolerance test (ITT) was performed after 2 weeks of vehicle (n=31) or ACY775 (n=21) treatment of DIO mice. Serum insulin (ng/ml) levels were measured after 3 weeks of vehicle (n=22) or ACY775 (n=21) in treated DIO mice. A homeostatic model assessment of insulin resistance (HOMA-IR) was analyzed after 3 weeks of vehicle (n=14) or ACY775 (n=13) treated DIO mice.\nFood intake was analyzed hourly until 3:00 am. […] DEXA scans were performed in two different cohorts.\nDIO mice then were treated with ricolinostat (50 mg/kg, i.p.) for 3 weeks. Daily body weight (g), daily food intake (g), serum leptin (ng/ml) levels after 3 weeks of vehicle (n-8) or ricolinostat (n=8) treatment, lean mass (g); fat mass and fat percentage (%) after 3 weeks of vehicle (n=16) or ricolinostat (n=17) treatment measured by DEXA scan were determined.\nBlood glucose (mg/dl) levels were measured after 1 week of vehicle (n=16) or ricolinostat (n=16) treated DIO mice. GTT after 1 week of vehicle (n=17) or ricolinostat (n=16) treatment of DIO mice was assessed. AOC analysis for GTT was performed. ITT after 2 weeks of vehicle (n=17) or ricolinostat (n=16) treated DIO mice was measured. Serum insulin (ng/ml) levels after 3 weeks of vehicle (n=8) or ricolinostat (n=8) treatment were measured in DIO mice. Liver sections from 3 weeks of vehicle or ricolinostat treated DIO mice were stained by H&E.\nDIO mice then were treated with bavarostat (10 mg/kg, i.p.) for 3 weeks and daily body weight (g) of DIO mice treated with Veh (n=9) or bavarostat (n=9) measured during the three weeks of treatment period. Daily food intake (g) during 3 weeks of Veh or bavarostat treatment was also measured.\nACY1083 was administered to DIO mice as described in Example 3."}, "HDAC6": {"target": "HDAC6 (Homo sapiens (Human), UniProt Q9UBN7)", "sequence (Q9UBN7 whole entry, species assumed)": "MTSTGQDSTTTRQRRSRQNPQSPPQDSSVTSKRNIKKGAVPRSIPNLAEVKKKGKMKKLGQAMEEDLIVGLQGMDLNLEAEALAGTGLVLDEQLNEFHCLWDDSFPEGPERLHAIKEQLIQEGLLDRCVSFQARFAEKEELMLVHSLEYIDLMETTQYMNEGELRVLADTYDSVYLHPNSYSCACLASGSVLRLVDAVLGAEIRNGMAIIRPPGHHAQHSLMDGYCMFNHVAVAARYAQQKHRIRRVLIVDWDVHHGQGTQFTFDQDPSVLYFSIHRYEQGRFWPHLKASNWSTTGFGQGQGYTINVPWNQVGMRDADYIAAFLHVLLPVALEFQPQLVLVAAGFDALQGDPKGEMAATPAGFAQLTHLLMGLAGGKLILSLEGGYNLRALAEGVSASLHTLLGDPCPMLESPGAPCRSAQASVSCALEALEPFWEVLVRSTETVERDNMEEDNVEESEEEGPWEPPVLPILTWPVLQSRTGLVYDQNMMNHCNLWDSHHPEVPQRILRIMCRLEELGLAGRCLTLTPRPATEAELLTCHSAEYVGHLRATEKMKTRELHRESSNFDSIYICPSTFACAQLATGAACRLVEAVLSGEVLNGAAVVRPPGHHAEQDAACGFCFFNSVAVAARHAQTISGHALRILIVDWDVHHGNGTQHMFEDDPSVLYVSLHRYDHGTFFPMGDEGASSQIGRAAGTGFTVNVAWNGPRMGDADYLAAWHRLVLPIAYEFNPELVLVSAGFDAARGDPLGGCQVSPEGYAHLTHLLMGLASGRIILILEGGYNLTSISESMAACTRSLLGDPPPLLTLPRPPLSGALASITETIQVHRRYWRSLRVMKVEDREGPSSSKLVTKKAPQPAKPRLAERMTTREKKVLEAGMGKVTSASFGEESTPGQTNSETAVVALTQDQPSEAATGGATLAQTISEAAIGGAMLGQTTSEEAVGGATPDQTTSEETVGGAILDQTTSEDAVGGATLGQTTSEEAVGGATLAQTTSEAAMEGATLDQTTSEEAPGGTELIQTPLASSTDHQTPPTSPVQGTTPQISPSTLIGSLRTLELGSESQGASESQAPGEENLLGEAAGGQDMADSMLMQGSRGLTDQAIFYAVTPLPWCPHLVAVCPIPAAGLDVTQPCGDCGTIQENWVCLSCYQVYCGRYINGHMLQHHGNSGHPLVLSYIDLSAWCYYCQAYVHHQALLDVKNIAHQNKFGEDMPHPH", "conditions": "unit printed as AM; unit of the source corrected; cited from earlier work"}, "[2]": {"conditions": "in vivo; cited from earlier work"}, "DIO mice [3]": {"test_system": "DIO mice", "test": "Chronic treatment of DIO mice (body weight, food intake, DEXA, glucose homeostasis)", "assay_type": "in vivo", "conditions": "14 days, oral administration"}, "[4]": {"test": "Brain/plasma ratio and brain or hypothalamus penetration", "conditions": "in vivo"}, "HDAC6-KO DIO mice": {"test_system": "HDAC6-KO DIO mice", "test": "Chronic treatment of DIO WT versus HDAC6 KO mice", "assay_type": "in vivo", "conditions": "DIO mice"}, "HDAC6 in AgRP neurons": {"test_system": "HDAC6 in AgRP neurons", "test": "DIO mice with HDAC6 depleted in AgRP neurons (HDAC6^Agrp-Δ)", "assay_type": "in vivo", "conditions": "HDAC6^Agrp-Δ versus HDAC6^WT DIO mice", "description": "Design, validation, and stereotaxic injection of AAV viral vector carrying the guide RNAs targeting the mouse HDAC6 genomic locus. Three designed sgRNAs were concatenated and constructed into an AAV vector carrying a cre-enabled mCherry fluorescent marker.\nFollowing the bilateral injection of AAV-sgHDAC6 into the arcuate nucleus of Agrp-ires-cre::LSL-Cas9-GFP (Agrp-Cre^+/−::Cas9^+/−) or control LSL-Cas9-GFP (Cas9^+/−) mice, immunostaining to detect the expression of mCherry and GFP was performed. AAV-sg-HDAC6 injected Agrp-Cre^+/−::Cas9^+/− (HDAC6^Agrp-Δ) and Cas9^+/−(HDAC6^WT) DIO mice (n=7 for each group) were fasted for 24 hours, and injected with ACY775 (10 mg/kg. i.p). Hourly total dark cycle food intake (g) (n=7 for each group) of these mice after ACY775 injection was measured. Body weight of AAV-sg-HDAC6 injected HDAC6^Agrp-Δ (n=11) and HDAC6^WT (n=6) mice were measured during 3 weeks of ACY775 (10 mg/kg/day, i.p.) treatment. Daily average food intake of HDAC6^Agrp-Δ (n=11) and HDAC6^WT (n=6) mice was measured during 3 weeks of ACY775 (10 mg/kg/day, i.p.) treatment. 24-hour food intake average of HDAC6^Agrp-Δ and HDAC6^WT mice during the 3 weeks of ACY775 treatment was assessed. Serum leptin level (ng/ml) of HDAC6^Agrp-Δ and HDAC6^WT mice after 2 weeks of ACY775 treatment (n=13 for HDAC6^WT and n=18 for HDAC6^Agrp-Δ) was measured. Lean mass (g); fat mass; and fat percentage (%) of HDAC6^Agrp-Δ and HDAC6^WT DIO mice after 3 weeks of ACY775 treatment was measured by DEXA scan. The HDAC6 inhibitor responsive neurons in the dorsomedial hypothalamus (DMH) were assessed. Immunostaining and quantification of c-Fos expression was performed in the DMH of DIO mice following one-time ACY775 treatment (10 mg/kg, i.p.)."}, "DIO mice [5]": {"test_system": "DIO mice", "conditions": "diet-induced obese mice; cited from earlier work"}}, "note": "“Also recorded” adds a separate entry of the source."}
{"smiles": "O=C(NO)c1cnc(NC2(c3ccccc3)CCC(F)(F)CC2)nc1", "note": "[ACY1083]", "values": [{"measurement": "food intake and total body fat mass (summary)", "setting": "DIO mice [1]", "value": "significant reduction of food intake and total body fat mass"}, {"measurement": "HDAC6 IC50", "setting": "HDAC6", "value": 3, "unit": "nM"}, {"measurement": "brain penetrance / BBB permeability", "setting": "[2]", "value": "brain-penetrating"}, {"measurement": "body weight", "setting": "DIO mice [3]", "value": "significant decrease in body weight; also recorded: reduced body weight"}]}
{"smiles": "CN1CCc2c(c3ccccc3n2Cc2ccc(C(=O)NO)cc2)C1", "note": "[tubastatin A]", "values": [{"measurement": "penetrance into the hypothalamus", "setting": "[4]", "value": "neither of which have high penetrance into the hypothalamus"}, {"measurement": "blood glucose, serum insulin and leptin levels, WT versus HDAC6 KO", "setting": "HDAC6-KO DIO mice", "value": "all reduced equally in the wt and HDAC6 KO group"}, {"measurement": "fat mass and fat %, WT versus HDAC6 KO", "setting": "HDAC6-KO DIO mice", "value": "significantly lower in both wt and HDAC6 KO groups"}, {"measurement": "food intake, WT versus HDAC6 KO", "setting": "HDAC6-KO DIO mice", "value": "reduced similarly"}, {"measurement": "glucose tolerance and insulin sensitivity (GTT, ITT), WT versus HDAC6 KO", "setting": "HDAC6-KO DIO mice", "value": "improved glucose tolerance and increased insulin sensitivity in both wt and the HDAC6 KO mice"}, {"measurement": "lean mass, WT versus HDAC6 KO", "setting": "HDAC6-KO DIO mice", "value": "not different"}, {"measurement": "body weight, WT versus HDAC6 KO", "setting": "HDAC6-KO DIO mice; 3 weeks, ACY775 10, ACY738 50, Tubastatin A 25 mg/kg/day i.p.", "value": "reduced the body weight of the HDAC6 KO mice the same as the wt mice"}, {"measurement": "anti-obesity effects on chronic treatment", "setting": "HDAC6 in AgRP neurons", "value": "did not change Tubastatin A's effects on suppressing feeding or body weight"}, {"measurement": "brain penetrance / BBB permeability", "setting": "[2]", "value": "extremely low"}, {"measurement": "anti-obesity effects reported by Cakir et al.", "setting": "DIO mice [5]", "value": "reduce food intake, fat mass, hepatic steatosis and improve systemic glucose homeostasis"}]}
